Data as given in patent publication US11040954B1, “CXCR3 receptor agonists” (RECEPTOS LLC, priority 2016, dated 2021).

Tests used:
[1] = Mouse pharmacokinetics after oral gavage, plasma drug concentration by LC-MS/MS (BALB/c); assay type: in vivo; conditions: 10 mg/kg, male mice; for Cmax / AUC(0-t): mouse, plasma; for AUC(0-t): read-out: AUC0-24
Description: (§1) Compounds were formulated in 5% DMSO/5% Tween20 in H2O, sonicated, vortexed, and put on stir plate overnight at a dose volume of 10 mL/kg. Balb/C (Jackson laboratories) or C57bl/6 (Taconic Biosciences) mice (8-9 weeks old) were acclimated to the colony for 3 days prior to dosing. Water and food were provided ab libitum. Compounds were administered by oral gavage. Groups of six animals received 3 to 4 bleeds per day with one terminal bleed. The time points were 30 min, 1 h, 2 h, 4 h, 6 h, 8 h, 24 h. Plasma was collected via centrifugation and analyzed for drug concentrations.
(§2) Preparation of Study Samples and Standards for Analysis by LC-MS/MS
(§3) 50 μl of plasma was aliquoted into a 96 well deep-well polypropylene plate (2 mL) to which 5 μL of DMSO was added. For standards, 5 μl of test compound in DMSO at […] the standard concentration was added to 50 μl of blank matrix in a 96 well deep-well polypropylene plate. For example, for a 300 nM standard, the 10× DMSO concentration was 3 μM. Study samples that require dilution are diluted with the appropriate blank matrix. For example, for a 10× dilution, 5 μL of study sample is added to 45 μl of blank matrix. Protein was precipitated from study samples and standards with the addition of 150 μl of acetonitrile. After a clean plate map was placed firmly over the top of the 96-well plate, a bench top shaker was used for 1 min to ensure complete precipitation of protein. The precipitated protein was pelleted by centrifuging for 3,000 rpm for 10 min at 20° C. and then the clear supernatant was transferred to a clean 96-well plate and spun again under the same conditions in order to pellet any solid material that may have been transferred.
(§4) Analysis of Study Samples and Standards with LCMS with MRM Detection
(§5) An Agilent 1200 HPLC with binary pump and a Leap CTC with fast wash autosampler were used to introduce samples to the mass spectrometer.
(§6) The column used was a Phenomenex Luna C8 30×2 mm 5 μm with a security guard. Mass detection was performed by an Applied Biosystems 4000 Qtrap in MRM mode and ionization was achieved by positive electrospray with a source temperature of 500° C. The ion transitions, […] potential and collision energies were dependent on the specific analyte.
(§7) Prepared samples were usually analyzed in reverse chronological order with bracketing standard curves. Typically at least 6 standards were used for quantification with a percent accuracy of +/−15% for all standards except at the LLOQ where a percent accuracy of +/−20% was allowed. The concentration time profile was fit using a one compartment model for the applicable mode of dosing using Phoenix WinNonLin 6.4.

CXCR3 = target: T1, CXCR3 (Homo sapiens, UniProt P49682); assay: CXCR3 cAMP agonist assay (cAMP Hunter CHOK1 CXCR3 Gi cell line, forskolin-stimulated, HitHunter cAMP detection); assay type: cell-based; conditions: cAMP Hunter CHOK1 CXCR3 Gi cells, 20 μM forskolin, 30 minutes; read-out: Activity (CXCR3 cAMP agonist assay compound EC50)
T1 construct: host or cells: CHO-K1 (cAMP Hunter CHOK1 CXCR3 Gi cell line)
T1 sequence (P49682 1-368): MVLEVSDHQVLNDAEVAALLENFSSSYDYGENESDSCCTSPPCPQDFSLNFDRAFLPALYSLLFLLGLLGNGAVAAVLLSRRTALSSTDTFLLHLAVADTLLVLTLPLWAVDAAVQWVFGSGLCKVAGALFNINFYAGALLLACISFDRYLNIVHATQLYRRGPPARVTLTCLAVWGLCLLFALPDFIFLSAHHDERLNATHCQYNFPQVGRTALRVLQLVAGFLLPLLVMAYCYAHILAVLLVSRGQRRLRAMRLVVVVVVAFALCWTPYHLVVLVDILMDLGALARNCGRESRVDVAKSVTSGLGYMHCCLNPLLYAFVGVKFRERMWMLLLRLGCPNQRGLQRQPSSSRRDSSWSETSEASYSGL
Summary of the method: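 Agonist activity was measured as suppression of forskolin (20 μM)-induced cAMP, read by luminescent enzyme-fragment complementation with a cAMP standard curve and CXCL11 defining full efficacy. Assay used 50,000 CXCR3 Gi CHOK1 cells/well in pH 7.4 HEPES-buffered HBSS with 0.1% BSA, compound 0-10 μM over 12 points, 30 min incubation.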

[2] = Mouse pharmacokinetics after oral gavage, plasma drug concentration by LC-MS/MS (C57BL/6); assay type: in vivo, C57bl/6 mice; conditions: for Cmax / AUC(0-t): mouse, plasma; for AUC(0-t): read-out: AUC0-24
Description: as §1, §2, §3, §4, §5, §6, §7

Row | Compound | apparent oral clearance (CL/F) [1] [mL/min/kg] | Cmax [1] [nM] | AUC(0-t) [1] [µM·h] | EC50 (CXCR3) [nM] | apparent oral clearance (CL/F) ([2]; C57BL/6, 60 mg/kg, female mice) [mL/min/kg] | Cmax ([2]; C57BL/6, 60 mg/kg, female mice) [nM] | AUC(0-t) ([2]; C57BL/6, 60 mg/kg, female mice) [µM·h] | apparent oral clearance (CL/F) ([2]; C57BL/6, 10 mg/kg, male mice) [mL/min/kg] | Cmax ([2]; C57BL/6, 10 mg/kg, male mice) [nM] | AUC(0-t) ([2]; C57BL/6, 10 mg/kg, male mice) [µM·h]
1 | NCCCC[C@H](NC(=O)[C@@H]1Cc2ccccc2CN1C(=O)CCC(=O)c1ccccc1)C(=O)Nc1ccc(F)c(C(F)(F)F)c1 [Compound 1-26] | – | 3 | 0.006 | < 50 | – | – | – | – | – | –
2 | NCCCC[C@H](NC(=O)[C@@H]1Cc2ccccc2CN1C(=O)CCC(=O)c1ccccc1)C(=O)Nc1ccc(Cl)c(F)c1 [Compound 1-20] | 527 | 230 | 0.53 | 50 to 250 | – | – | – | – | – | –
3 | Cc1cccc(NC(=O)[C@H](CCN)NC(=O)[C@@H]2Cc3ccccc3CN2C(=O)CCC(=O)c2ccccc2)c1 [Compound 2-5] | 389 | 500 | 0.8 | < 50 | – | – | – | – | – | –
4 | Cc1cc(NC(=O)[C@H](CCN)NC(=O)[C@@H]2Cc3ccccc3CN2C(=O)CCC(=O)c2ccccc2)c(OC(F)(F)F)cc1C [Compound 14-28] | – | – | – | < 50 | 47 | 5200 | 33.8 | – | – | –
5 | NCC[C@H](NC(=O)[C@@H]1Cc2ccccc2CN1C(=O)CCC(=O)N1CCCC2(CCC2)C1)C(=O)Nc1ccc2c(c1)CCC2 [Compound 10-8] | – | – | – | < 50 | 431 | 1500 | 3.9 | – | – | –
6 | Cc1cc(NC(=O)[C@H](CCN)NC(=O)[C@@H]2Cc3ccccc3CN2C(=O)CCC(=O)N2CCCC(C)(C)C2)ccc1Cl [Compound 12-88] | – | – | – | < 50 | 280 | 3100 | 6 | – | – | –
7 | CCc1cc(NC(=O)[C@H](CCN)NC(=O)[C@@H]2Cc3ccccc3CN2C(=O)CCC(=O)c2ccccc2)ccc1Cl [Compound 2-55] | – | – | – | < 50 | 176 | 3000 | 9.9 | – | – | –
8 | Cc1cc(NC(=O)[C@H](CCCN)NC(=O)[C@@H]2Cc3ccccc3CN2C(=O)CCC(=O)c2ccccc2)ccc1Cl [Compound 4-3] | 4627 | 30 | 0.06 | < 50 | – | – | – | – | – | –
9 | NCC[C@H](NC(=O)[C@@H]1Cc2ccccc2CN1C(=O)CCC(=O)N1CCCC12CCC2)C(=O)Nc1ccc(Cl)c(Cl)c1F [Compound 12-152] | – | – | – | < 50 | 190 | 2800 | 8.3 | – | – | –
10 | CC1(C)CCCCN1C(=O)CCC(=O)N1Cc2cc(F)ccc2C[C@H]1C(=O)N[C@@H](CCN)C(=O)Nc1ccc(Cl)c(Cl)c1F [Compound 15-62] | – | – | – | < 50 | 1100 | 600 | 1.4 | – | – | –
11 | CN1CCN(C(=O)CCC(=O)N2Cc3ccccc3C[C@H]2C(=O)NC2(C(=O)Nc3ccc(Cl)c(Cl)c3F)CCNCC2)CC1 [Compound 12-138] | – | – | – | < 50 | 851 | 500 | 1.8 | – | – | –
12 | Cc1cc(NC(=O)[C@H](CCN)NC(=O)[C@@H]2Cc3ccccc3CN2C(=O)CCC(=O)N2CCCC(C)(C)C2)cc(C)c1Cl [Compound 10-9] | – | – | – | < 50 | 132 | 4300 | 12.4 | – | – | –
13 | Cc1cc(NC(=O)C2(NC(=O)[C@@H]3Cc4ccccc4CN3C(=O)CCC(=O)c3ccccc3)CCN(C)CC2)ccc1Cl [Compound 6-4] | – | – | – | 50 to 250 | – | – | – | 33 | 810 | 8.3
14 | CC1(C)CCCCN1C(=O)CCC(=O)N1Cc2ccccc2C[C@H]1C(=O)N[C@@H](CCN)C(=O)Nc1ccc(Cl)c(Cl)c1F [Compound 15-3] | – | – | – | < 50 | 666 | 600 | 2.4 | – | – | –
15 | Cc1ccc(C(F)(F)F)c(NC(=O)[C@H](CCN)NC(=O)[C@@H]2Cc3ccccc3CN2C(=O)CCC(=O)c2ccccc2)c1 [Compound 14-17] | – | – | – | < 50 | 22 | 22000 | 78 | – | – | –

The remaining lines, values ahead:

Row | apparent oral clearance (CL/F) [1] [mL/min/kg] | Cmax [1] [nM] | AUC(0-t) [1] [µM·h] | EC50 (CXCR3) [nM] | apparent oral clearance (CL/F) ([2]; C57BL/6, 60 mg/kg, female mice) [mL/min/kg] | Cmax ([2]; C57BL/6, 60 mg/kg, female mice) [nM] | AUC(0-t) ([2]; C57BL/6, 60 mg/kg, female mice) [µM·h] | apparent oral clearance (CL/F) ([2]; C57BL/6, 10 mg/kg, male mice) [mL/min/kg] | Cmax ([2]; C57BL/6, 10 mg/kg, male mice) [nM] | AUC(0-t) ([2]; C57BL/6, 10 mg/kg, male mice) [µM·h] | Compound
16 | 403 | 400 | 0.8 | < 50 | – | – | – | – | – | – | Cc1ccc(NC(=O)[C@H](CCN)NC(=O)[C@@H]2Cc3ccccc3CN2C(=O)CCC(=O)c2ccccc2)cc1C [Compound 2-3]
17 | 59 | 1300 | 4.9 | < 50 | – | – | – | – | – | – | Cc1cc(NC(=O)[C@H](CCN)NC(=O)[C@@H]2Cc3ccccc3CN2C(=O)CCC(=O)c2ccccc2)c(C)cc1Cl [Compound 2-19]
18 | 76 | 900 | 3.8 | < 50 | – | – | – | – | – | – | Cc1c(Cl)ccc(NC(=O)[C@H](CCN)NC(=O)[C@@H]2Cc3ccccc3CN2C(=O)CCC(=O)c2ccccc2)c1C [Compound 2-26]
19 | 86 | 1900 | 3.3 | < 50 | – | – | – | – | – | – | Cc1ccc(NC(=O)[C@H](CCN)NC(=O)[C@@H]2Cc3ccccc3CN2C(=O)CCC(=O)c2ccccc2)cc1C(F)(F)F [Compound 2-7]
20 | – | – | – | < 50 | 222 | 3200 | 7.7 | – | – | – | Cc1cc(NC(=O)[C@H](CCN)NC(=O)[C@@H]2Cc3ccccc3CN2C(=O)CCC(=O)c2ccccc2)c(C#N)cc1Cl [Compound 14-18]
21 | – | – | – | < 50 | 34 | 7300 | 48 | – | – | – | Cc1cc(NC(=O)[C@H](CC23CC(N)(C2)C3)NC(=O)[C@@H]2Cc3ccccc3CN2C(=O)CCC(=O)c2ccccc2)ccc1Cl [Compound 22-1, (S)—N—((S)-3-(3-aminobicyclo[1.1.1]pentan-1-yl)-1-((4-chloro-3-methylphenyl)amino)-1-oxopropan-2-yl)-2-(4-oxo-4-phenylbutanoyl)-1,2,3,4-tetrahydroisoquinoline-3-carboxamide]
22 | – | 20 | 0.03 | < 50 | – | – | – | – | – | – | CNCCCC[C@H](NC(=O)[C@@H]1Cc2ccccc2CN1C(=O)CCC(=O)c1ccccc1)C(=O)Nc1ccc(Cl)c(C)c1 [Compound 4-4]
23 | – | – | – | < 50 | 90 | 5700 | 17.6 | – | – | – | CC1(C)CCCN(C(=O)CCC(=O)N2Cc3ccccc3C[C@H]2C(=O)N[C@@H](CCN)C(=O)Nc2ccc(Cl)c(Cl)c2F)C1 [Compound 15-6]
24 | – | – | – | < 50 | 92 | 4300 | 17.6 | – | – | – | NCC[C@H](NC(=O)[C@@H]1Cc2ccc(F)cc2CN1C(=O)CCC(=O)c1ccccc1)C(=O)Nc1ccc(Cl)c(Cl)c1F [Compound 27-7]
25 | – | – | – | < 50 | 823 | 600 | 2.1 | – | – | – | Cc1cc(NC(=O)[C@H](CCN)NC(=O)[C@@H]2Cc3ccccc3CN2C(=O)CCC(=O)N(C)CC(C)(C)C)ccc1Cl [Compound 12-114]
